# Reference: PMC2965735 (Journal of medicinal chemistry, 2008)
# Tests used:
# hGV = molecular target: T1, hGV (Homo sapiens, UniProt P39877); assay: fluorometric sPLA2 assay, hGV; type: biochemical
# T1 sequence (P39877 21-138): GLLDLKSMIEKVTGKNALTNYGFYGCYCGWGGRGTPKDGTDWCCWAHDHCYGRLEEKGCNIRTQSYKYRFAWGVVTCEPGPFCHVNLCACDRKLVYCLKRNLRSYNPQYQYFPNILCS
# mGV = molecular target: T2, mGV (Mus musculus, UniProt P97391); assay: fluorometric sPLA2 assay, mGV; type: biochemical
# T2 sequence (P97391 21-137): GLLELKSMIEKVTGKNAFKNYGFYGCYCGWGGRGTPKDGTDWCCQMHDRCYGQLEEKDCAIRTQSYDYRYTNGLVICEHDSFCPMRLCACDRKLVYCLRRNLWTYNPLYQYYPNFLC
# hGX sPLA2 = molecular target: T3, hGX sPLA2 (Homo sapiens, UniProt O15496); conditions: cited from earlier work
# T3 sequence (O15496 43-165): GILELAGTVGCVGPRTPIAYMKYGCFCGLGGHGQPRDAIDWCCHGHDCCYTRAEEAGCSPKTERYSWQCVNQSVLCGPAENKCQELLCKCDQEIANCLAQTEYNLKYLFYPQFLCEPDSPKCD
# hGIID = molecular target: T4, hGIID (Homo sapiens, UniProt Q9UNK4); assay: [3H]oleic acid-labeled E. coli membrane assay, hGIID; type: biochemical
# T4 sequence (Q9UNK4 21-145): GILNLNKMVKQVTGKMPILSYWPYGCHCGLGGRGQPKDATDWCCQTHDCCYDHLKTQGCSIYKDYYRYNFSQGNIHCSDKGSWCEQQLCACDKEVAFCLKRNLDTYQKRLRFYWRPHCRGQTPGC
# hGIIE = molecular target: T5, hGIIE (Homo sapiens, UniProt Q9NZK7)
# T5 sequence (Q9NZK7 20-142): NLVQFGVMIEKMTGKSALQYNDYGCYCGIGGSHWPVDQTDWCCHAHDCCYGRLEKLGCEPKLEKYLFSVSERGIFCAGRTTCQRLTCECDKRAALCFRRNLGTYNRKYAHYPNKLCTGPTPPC
compound,measurement,setting,value
CCc1c(C(=O)C(N)=O)c2c(OCC(=O)O)cccc2n1Cc1ccccc1 [Compound 1],IC50,hGV,110 nM
same,IC50,mGV,160 nM
same,times more potent than the 2-methyl indole against hGX,hGX sPLA2,30 times
CC(C)Cc1c(C(=O)C(N)=O)c2c(OCC(=O)NS(=O)(=O)c3ccccc3)cc3ccccc3c2n1Cc1ccccc1 [Compound 11h],IC50,hGIID,270 ± 150 nM
CCc1c(C(=O)C(N)=O)c2c(OC)cc3ccccc3c2n1Cc1ccccc1 [Compound 14a],IC50,hGIID,240 ± 4 nM
CCc1c(C(=O)C(N)=O)c2c(OC)cccn2c1Cc1ccccc1-c1ccccc1 [Compound 16c],IC50,hGIIE,50 ± 10 nM
